This test concerns the target hPAD4 enzyme (Homo sapiens, UniProt Q9UM07). Briefly: RFMS Assay 1 (rapid-fire mass spectrum PAD4 inhibition assay, BAEE substrate). In kind it is biochemical. To be noted: 5 nM hPAD4 enzyme, 250 μM BAEE, 30 mins compound and enzyme preincubation at 37° C., 90 min enzyme/substrate reaction. The method, then:
Compounds were solubilized in 100% DMSO to achieve a 10 mM compound concentration. Compound stock solutions were stored at RT. A series of dilutions were prepared in DMSO and mixed 8 times with 20 μL mixing volume. Final top concentration of compound in the assay is 50 μM. Final assay conditions were as follows: • Reaction volume: 26 μl • Assay buffer: 25 mM hepes, pH 7.5, 5 mM NaCl, 1 mM DTT, 0.2 mg/ml BSA, 0.01% CHAPS, 50 μM Calcium, and 5 μM TPEN • Final concentrations: 5 nM hPAD4 enzyme, 250 μM BAEE, and 0.5% DMSO • Total incubation time: 30 mins compound and enzyme preincubation at 37° C., 90 min enzyme/substrate reaction, 30 min reaction with phenyl glyoxal at 37° C. • Stop solution: 40 μl 5% TCA in ACN
0.13 μL of compound solution was added to 13 μL of 10 nM PAD4 in assay buffer. After 30 min 13 μl of 500 μM of BAEE was added in 25 mM hepes, pH 7.5, 5 mM NaCl, 1 mM DTT, 0.2 mg/ml BSA, 0.01% CHAPS, 50 µM Calcium, […] was added and the reaction incubated for 90 min at 37° C. The enzymatic reaction was quenched by addition of 15 μl of 6.1N TCA, 100% Final Concentration is 20%, 35 μl of 8.5 mM phenyl glyoxal (final concentration 4 mM) is then added and the reaction is incubated for 30 min at 37° C.
After 30 minutes the plates are spun down to remove all precipitate. The enzyme reaction was quenched with an equal volume of methanol containing internal standard (modified citrulline). Samples were loaded onto the Rapid Fire RF300 system (Agilent) wherein they were first sipped for 1000 ms and then directly loaded to a C18 separations cartridge using a mixture of acetonitrile containing 0.01% formic acid for 3000 ms desalting. The flow rate of the mobile phase was 1.5 ml/min. Once the samples were eluted from the cartridge, a mobile phase of acetonitrile containing 0.01% formic acid was used to move the samples into the mass spectrometer for 4000 ms at a flow rate of 1.25 ml/min/Sciex AP15500 triple quadrupole mass spectrometer (Applied Biosystems) equipped with ESI was used to analyze the peptidyl citrulline and internal standard ions.
MRM transition of product and internal standard were monitored at m/z 424.5 to 350.4 and m/z 293 to 247 respectively. The dwell time for each transition was set at 200 ms, and the ESI voltage was used at 5500 with a source temperature of 400° C. Extracted ion peaks for each transition were integrated using the Rapid Fire Integrator software. Peak area of analyte was normalized with internal standard.).
Sequence of hPAD4 enzyme (Q9UM07 whole entry): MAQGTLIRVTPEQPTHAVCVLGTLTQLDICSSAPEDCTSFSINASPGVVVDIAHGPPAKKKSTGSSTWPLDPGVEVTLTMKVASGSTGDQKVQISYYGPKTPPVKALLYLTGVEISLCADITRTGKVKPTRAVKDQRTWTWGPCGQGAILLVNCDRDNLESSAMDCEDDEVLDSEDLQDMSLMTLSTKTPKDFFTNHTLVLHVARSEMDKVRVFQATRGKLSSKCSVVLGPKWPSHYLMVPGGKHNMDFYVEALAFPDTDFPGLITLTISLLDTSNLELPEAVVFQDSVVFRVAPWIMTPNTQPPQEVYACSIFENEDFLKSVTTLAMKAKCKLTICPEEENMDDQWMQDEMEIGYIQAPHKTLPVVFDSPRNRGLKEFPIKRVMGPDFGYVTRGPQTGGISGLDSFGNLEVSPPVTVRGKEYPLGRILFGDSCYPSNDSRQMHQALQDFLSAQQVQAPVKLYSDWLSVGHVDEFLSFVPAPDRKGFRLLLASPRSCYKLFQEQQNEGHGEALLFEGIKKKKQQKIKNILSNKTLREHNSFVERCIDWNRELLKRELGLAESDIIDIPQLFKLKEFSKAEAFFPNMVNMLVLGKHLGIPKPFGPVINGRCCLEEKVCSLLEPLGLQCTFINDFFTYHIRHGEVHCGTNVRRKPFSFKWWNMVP
Broadly, the IC50 is the concentration that inhibits the measured activity by half. High values mean weaker potency, low ones greater potency. Regarding `Cn1c(-c2cc3cccc(OC(F)Cn4cnc(F)c4)c3n2CC2CC2)nc2cc3c(nc21)CCN(C[C@H](N)CF)C3=O` (single isomer, unassigned) [Example 73a], the IC50 is at most 10 nM.

On to `COc1cccc2cc(-c3nc4cc5c(nc4n3C)CCN(C[C@H](N)CF)C5=O)n(CCOC(F)F)c12` [Example 6, (S)-7-(2-amino-3-fluoropropyl)-2-(1-(2-(difluoromethoxy)ethyl)-7-methoxy-1H-indol-2-yl)-3-methyl-3,5,6,7-tetrahydro-8H-imidazo[4,5-b][1,6]naphthyridin-8-one], for which the IC50 was in the range of 101 to 500 nM.

Regarding `Cn1c(-c2cc3cccc(OCCn4cnc(Cl)n4)c3n2CC2CC2)nc2cc3c(nc21)CCN(C[C@H](N)CF)C3=O` [Example 92, (S)-7-(2-amino-3-fluoropropyl)-2-(7-(2-(3-chloro-1H-1,2,4-triazol-1-yl)ethoxy)-1-(cyclopropylmethyl)-1H-indol-2-yl)-3-methyl-3,5,6,7-tetrahydro-8H-imidazo[4,5-b][1,6]naphthyridin-8-one], the IC50 is 11 to 100 nM.

Take `COCCn1c(-c2nc3cc4c(nc3n2C)CCN(C[C@H](N)CF)C4=O)cc2cccc(OC(F)Cn3ccnc3)c21` (single isomer, unassigned) [Example 77b]: the IC50 lay in the range of 11 to 100 nM.

Regarding `CC(C(F)Oc1cccc2cc(-c3nc4cc5c(nc4n3C)CCN(C[C@H](N)CF)C5=O)n(CC3CC3)c12)n1ccnc1` (single isomer, unassigned) [Example 78c], the IC50 lay within 11 to 100 nM.

With `Cn1c(-c2cc3cccc(OCC(O)c4cnco4)c3n2CC2CC2)nc2cc3c(nc21)CCN(C[C@H](N)CF)C3=O` (single isomer, unassigned) [Example 61a], the IC50 lay in the range of 101 to 500 nM.

Turning to `C[C@H](COc1cccc2cc(-c3nc4cc5c(nc4n3C)CCN(C[C@@H](C)N)C5=O)n(CC3CC3)c12)n1cnc(F)c1` [Example 81, 7-((R)-2-aminopropyl)-2-(1-(cyclopropylmethyl)-7-((R)-2-(4-fluoro-1H-imidazol-1-yl)propoxy)-1H-indol-2-yl)-3-methyl-3,5,6,7-tetrahydro-8H-imidazo[4,5-b][1,6]naphthyridin-8-one], the IC50 was at most 10 nM.

On to `Cn1c(-c2cc3cccc(OC(C)(F)Cn4ccnc4)c3n2CC2CC2)nc2cc3c(nc21)CCN(C[C@H](N)CF)C3=O` (single isomer, unassigned) [Example 76b], for which the IC50 fell in the range of 11 to 100 nM.

In the case of `CO[C@H](C)C(=O)N1CCC(c2cccc3cc(-c4nc5cc6c(nc5n4C)CCN(C[C@H](N)CF)C6=O)n(CC4CC4)c23)CC1` [Example 31, 7-((S)-2-amino-3-fluoropropyl)-2-(1-(cyclopropylmethyl)-7-(1-((R)-2-methoxypropanoyl)piperidin-4-yl)-1H-indol-2-yl)-3-methyl-3,5,6,7-tetrahydro-8H-imidazo[4,5-b][1,6]naphthyridin-8-one], the IC50 was in the range of 11 to 100 nM.

On to `Cn1c(-c2cc3cccc(OCCn4ccnc4Cl)c3n2CC2CC2)nc2cc3c(nc21)CCN(C[C@H](N)CF)C3=O` [Example 93, (S)-7-(2-amino-3-fluoropropyl)-2-(7-(2-(2-chloro-1H-imidazol-1-yl)ethoxy)-1-(cyclopropylmethyl)-1H-indol-2-yl)-3-methyl-3,5,6,7-tetrahydro-8H-imidazo[4,5-b][1,6]naphthyridin-8-one], for which the IC50 was 11 to 100 nM.

Compound `CC(=O)N1CCC(c2cccc3cc(-c4nc5cc6c(nc5n4C)CCN(C[C@H](N)CF)C6=O)n(CC4CC4)c23)CC1` [Example 29, (S)-2-(7-(1-acetylpiperidin-4-yl)-1-(cyclopropylmethyl)-1H-indol-2-yl)-7-(2-amino-3-fluoropropyl)-3-methyl-3,5,6,7-tetrahydro-8H-imidazo[4,5-b][1,6]naphthyridin-8-one] displayed an IC50 of 101 to 500 nM.

Turning to `CC(COc1cccc2cc(-c3nc4cc5c(nc4n3C)CCN(C[C@H](N)CF)C5=O)n(CC3CC3)c12)c1cccnc1` (single isomer, unassigned) [Example 45a], the IC50 was at most 10 nM.

`Cn1c(-c2cc3cccc(/C=C/Cn4cnc(F)c4)c3n2CC2CC2)nc2cc3c(nc21)CCN(C[C@H](N)CF)C3=O` [Example 97, (S,E)-7-(2-amino-3-fluoropropyl)-2-(1-(cyclopropylmethyl)-7-(3-(4-fluoro-1H-imidazol-1-yl)prop-1-en-1-yl)-1H-indol-2-yl)-3-methyl-3,5,6,7-tetrahydro-8H-imidazo[4,5-b][1,6]naphthyridin-8-one] registered an IC50 of 11 to 100 nM.

Compound `CC(COc1cccc2cc(-c3nc4cc5c(nc4n3C)CCN(C[C@H](N)CF)C5=O)n(CC3CC3)c12)c1cccnc1` (single isomer, unassigned) [Example 45b] returned an IC50 of at most 10 nM.

`C[C@H](Cn1cncc1F)Oc1cccc2cc(-c3nc4cc5c(nc4n3C)CCN(C[C@H](N)CF)C5=O)n(CC3CC3)c12` [Example 69, 7-((S)-2-amino-3-fluoropropyl)-2-(1-(cyclopropylmethyl)-7-(((R)-1-(5-fluoro-1H-imidazol-1-yl)propan-2-yl)oxy)-1H-indol-2-yl)-3-methyl-3,5,6,7-tetrahydro-8H-imidazo[4,5-b][1,6]naphthyridin-8-one] registered an IC50 of 11 to 100 nM.

For the compound `Cc1nnc(CCOc2cccc3cc(-c4nc5cc6c(nc5n4C)CCN(C[C@H](N)CF)C6=O)n(CC4CC4)c23)s1` [Example 55, (S)-7-(2-amino-3-fluoropropyl)-2-(1-(cyclopropylmethyl)-7-(2-(5-methyl-1,3,4-thiadiazol-2-yl)ethoxy)-1H-indol-2-yl)-3-methyl-3,5,6,7-tetrahydro-8H-imidazo[4,5-b][1,6]naphthyridin-8-one], the IC50 lay within 101 to 500 nM.

Consider `Cn1c(-c2cc3cccc(OC[C@H]4CNS(=O)(=O)C4)c3n2CC2CC2)nc2cc3c(nc21)CCN(C[C@H](N)CF)C3=O` [Example 52, 7-((S)-2-amino-3-fluoropropyl)-2-(1-(cyclopropylmethyl)-7-(((R)-1,1-dioxidoisothiazolidin-4-yl)methoxy)-1H-indol-2-yl)-3-methyl-3,5,6,7-tetrahydro-8H-imidazo[4,5-b][1,6]naphthyridin-8-one], for which the IC50 fell in the range of 11 to 100 nM.

In the case of `Cn1c(-c2cc3cccc(OCCc4cn[nH]c4)c3n2CC2CC2)nc2cc3c(nc21)CCN(C[C@H](N)CF)C3=O` [Example 50, (S)-2-(7-(2-(1H-pyrazol-4-yl)ethoxy)-1-(cyclopropylmethyl)-1H-indol-2-yl)-7-(2-amino-3-fluoropropyl)-3-methyl-3,5,6,7-tetrahydro-8H-imidazo[4,5-b][1,6]naphthyridin-8-one], the IC50 was at most 10 nM.

Turning to `COc1cccc2cc(-c3nc4cc5c(nc4n3C)CCN(C[C@H](N)CF)C5=O)n(CCOC(F)(F)F)c12` [Example 5, (S)-7-(2-amino-3-fluoropropyl)-2-(7-methoxy-1-(2-(trifluoromethoxy)ethyl)-1H-indol-2-yl)-3-methyl-3,5,6,7-tetrahydro-8H-imidazo[4,5-b][1,6]naphthyridin-8-one], the IC50 is 101 to 500 nM.

As to `COc1nccc2cc(-c3nc4cc5c(nc4n3C)CCN(C[C@H](N)CF)C5=O)n(CC(F)(F)F)c12` [Example 21, (S)-7-(2-amino-3-fluoropropyl)-2-(7-methoxy-1-(2,2,2-trifluoroethyl)-1H-pyrrolo[2,3-c]pyridin-2-yl)-3-methyl-3,5,6,7-tetrahydro-8H-imidazo[4,5-b][1,6]naphthyridin-8-one], the IC50 is over 1000 nM.

Consider `CN1C[C@H](COc2cccc3cc(-c4nc5cc6c(nc5n4C)CCN(C[C@H](N)CF)C6=O)n(CC4CC4)c23)CS1(=O)=O` [Example 53, 7-((S)-2-amino-3-fluoropropyl)-2-(1-(cyclopropylmethyl)-7-(((R)-2-methyl-1,1-dioxidoisothiazolidin-4-yl)methoxy)-1H-indol-2-yl)-3-methyl-3,5,6,7-tetrahydro-8H-imidazo[4,5-b][1,6]naphthyridin-8-one], for which the IC50 is 101 to 500 nM.

`C[C@H](O)C(=O)N1CCC(c2cccc3cc(-c4nc5cc6c(nc5n4C)CCN(C[C@H](N)CF)C6=O)n(CC4CC4)c23)CC1` [Example 32, 7-((S)-2-amino-3-fluoropropyl)-2-(1-(cyclopropylmethyl)-7-(1-((S)-2-hydroxypropanoyl)piperidin-4-yl)-1H-indol-2-yl)-3-methyl-3,5,6,7-tetrahydro-8H-imidazo[4,5-b][1,6]naphthyridin-8-one] returned an IC50 of 101 to 500 nM.

For the origin of these results see patent publication US20250353848A1, “HETEROCYCLIC PAD4 INHIBITORS” (Celgene Corporation, priority 2022, published 2025).
